Reference: PubChem BioAssay (NCI)
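In this assay, cells in 96-well plates receive the compound at five concentrations for 48 hours. Endpoints are linearly interpolated between the surrounding concentrations. TGI is the concentration that stops growth completely.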

Assays:
Experiment in all cases: inhibition of tumour cell growth, NCI panel, 48 h
XF 498 CNS = tested on: XF 498 CNS
KM20L2 colon = tested on: KM20L2 colon
LXFL 529 NSCLC = tested on: LXFL 529 NSCLC
HOP-18 NSCLC = tested on: HOP-18 NSCLC
DMS 273 small cell lung = tested on: DMS 273 small cell lung
DLD-1 colon = tested on: DLD-1 colon
M19-MEL melanoma = tested on: M19-MEL melanoma
DMS 114 small cell lung = tested on: DMS 114 small cell lung

| SMILES | TGI (XF 498 CNS) | TGI (KM20L2 colon) | TGI (LXFL 529 NSCLC) | TGI (HOP-18 NSCLC) | TGI (DMS 273 small cell lung) | TGI (DLD-1 colon) | TGI (M19-MEL melanoma) | TGI (DMS 114 small cell lung) |
| --- | --- | --- | --- | --- | --- | --- | --- | --- |
| COc1c(OC(C)=O)c(OC(C)=O)cc2c1-c1ccc(SC)c(=O)cc1C(NC(C)=O)CC2 (centres undefined) | > 28.8 µM | 6.84 µM | > 100 µM | > 100 µM | > 100 µM | > 100 µM | > 100 µM |  |
| CN1C(=O)CSC1=S |  | > 100 µM | > 100 µM | > 100 µM | > 100 µM | > 100 µM | > 100 µM | > 100 µM |
